One assay deals with T1, PDHK2 (Homo sapiens, UniProt Q15119).
T1 construct: purchased Carna Bioscience
In words: Biochemical activity testing of PDHK2: PDC inactivation assay. The note with it: human rec PDHK2, PDC from porcine heart, ATP 5 μM; read-out: IC50 PDHK2 (enzyme assay). Put shortly: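 Human recombinant PDHK2 (137 nM final) preincubated 30 min at RT with porcine heart PDC (20 mU/ml) and compound in pH 7.0 phosphate buffer, then phosphorylated with 5 μM ATP for 30 min at 37 °C. Residual PDC activity read as NADH fluorescence increase (Ex 340/Em 450) over 45 min; inhibitor-free reaction as full value, 3 mM DCA as zero, IC50 derived.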

The target of the next assay is T2, human PDHK2 (12-407) (Homo sapiens, UniProt Q15119).
T2 construct: The human PDHK2 (12-407) was produced in E. coli; His-tag (cleaved yes); made in house; host or cells: E. coli
In words: Isothermal titration calorimetry (ITC) binding. The note with it: 30° C., pH 7.5. Put shortly: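 Untagged PDHK2 (12-407) from E. coli at 50 μM titrated into 5 μM compound at 30° C in pH 7.5 HEPES/KCl/MgCl2/phosphate buffer, ≤1% DMSO. One-site fit gave KA, ΔH^obs and N after heat-of-dilution correction; protein concentration referenced to a standard inhibitor and compound concentration adjusted to 1:1 stoichiometry.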
(In general: Isothermal titration calorimetry measures the heat released or taken up as one component is titrated into another.)

In another assay the test system is PDH-Elalpha (pSer300). In words: Cellular immunofluorescence assay in HEK293T cells. The format is cell-based. The note with it: Homo sapiens, HEK-293T, 5 hours incubation, anti-PDH-E1alpha pSer300 immunofluorescence, read-out: IC50 (cell data). A digest of the protocol:
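HEK293T cells were exposed to compound for 5 hours, then fixed, permeabilised and immunostained for PDH-Elalpha pSer300 with Hoechst counterstain, read by laser scanning cytometry. Percent effect was normalized to a pharmacological inhibitor control and fitted to dose-response curves.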

Consider `C[C@@](O)(C(=O)N1CCC(c2ccnn2-c2ccc(C(F)(F)F)cc2F)CC1)C(F)(F)F` [Compound A88, (R)-3,3,3-Trifluoro-1-[4-[2-[2-fluoro-4-(trifluoromethyl)phenyl]-2H-pyrazol-3-yl]-1-piperidyl]-2-hydroxy-2-methyl-propan-1-one], for which the IC50 on PDHK2 and in the assay on PDH-Elalpha (pSer300) was 300 to 3000 nM in each case. Further, the Kd at human PDHK2 (12-407) was under 300 nM.
As to `C[C@@](O)(C(=O)N1CCC(c2ccnn2-c2ccc(C#N)cc2F)CC1)C(F)(F)F` [Compound A91, 3-Fluoro-4-[5-[1-[(R)-3,3,3-trifuoro-2-hydroxy-2-methyl-propanoyl]-4-piperidyl]-2H-pyrazol-1-yl]benzonitrile], the values for the IC50 at PDHK2 and with PDH-Elalpha (pSer300) were 300 to 3000 nM and 3000 to 50000 nM, respectively. Moreover, the Kd at human PDHK2 (12-407) is under 300 nM.
For `CC(C)(O)c1ccc(-n2nccc2C2CCN(C(=O)[C@@](C)(O)C(F)(F)F)CC2)c(F)c1` [Compound A92, (R)-3,3,3-Trifluoro-1-[4-[2-[2-fluoro-4-(1-hydroxy-1-methyl-ethyl)phenyl]-2H-pyrazol-3-yl]-1-piperidyl]-2-hydroxy-2-methyl-propan-1-one], in that order: 300 to 3000 nM, 300 to 3000 nM and under 300 nM.
The corresponding values for `C[C@@](O)(C(=O)N1CCC(c2ccnn2[C@H]2CC[C@H](O)CC2)CC1)C(F)(F)F` [Compound A94, (R)-3,3,3-Trifluoro-2-hydroxy-1-[4-[2-(4-hydroxycyclohexyl)-2H-pyrazol-3-yl]-1-piperidyl]-2-methyl-propan-1-one] are 300 to 3000 nM, 3000 to 50000 nM and under 300 nM.
The corresponding values for `C[C@@](O)(C(=O)N1CCC(c2ccnn2-c2ccc(OC(F)(F)F)cc2)CC1)C(F)(F)F` [Compound A95, (R)-3,3,3-Trifluoro-2-hydroxy-2-methyl-1-[4-[2-[4-(trifluoromethoxy)-phenyl]-2H-pyrazol-3-yl]-1-piperidyl]propan-1-one] are under 300 nM, 300 to 3000 nM and under 300 nM.
Consider `C[C@@](O)(C(=O)N1CCC(c2ccnn2-c2ccc(OC(F)F)cc2)CC1)C(F)(F)F` [Compound A96, (R)-1-[4-[2-[4-(Difluoromethoxy)phenyl]-2H-pyrazol-3-yl]-1-piperidyl]-3,3,3-trifluoro-2-hydroxy-2-methyl-propan-1-one], for which the IC50 on PDHK2 and in the assay with PDH-Elalpha (pSer300) was 300 to 3000 nM throughout. The molecule also came in with a Kd at human PDHK2 (12-407) of under 300 nM.
Regarding `Cc1cc(C2CCN(C(=O)[C@@](C)(O)C(F)(F)F)CC2)n(-c2ccc(F)cc2F)n1` [Compound A97, (R)-1-{4-[2-(2,4-Difluoro-phenyl)-5-methyl-2H-pyrazol-3-yl]-piperidin-1-yl}-3,3,3-trifluoro-2-hydroxy-2-methyl-propan-1-one], the IC50 on PDHK2 was under 300 nM; in the assay on PDH-Elalpha (pSer300), 300 to 3000 nM. Further, the Kd on human PDHK2 (12-407) was under 300 nM.
For the molecule `Cc1cc(C2CCN(C(=O)[C@@](C)(O)C(F)(F)F)CC2)n(-c2ccccc2)n1` [Compound A98, (R)-3,3,3-Trifluoro-2-hydroxy-2-methyl-1-[4-(5-methyl-2-phenyl-2H-pyrazol-3-yl)-piperidin-1-yl]-propan-1-one], the concentration for half-maximal inhibition (IC50) on PDHK2 is under 300 nM; in the assay with PDH-Elalpha (pSer300), 300 to 3000 nM. This molecule also gave a Kd at human PDHK2 (12-407) of under 300 nM.
On to `C[C@@](O)(C(=O)N1CCC(c2ccnn2-c2ccc(Cl)c(F)c2)CC1)C(F)(F)F` [Compound A100, (R)-1-{4-[2-(4-Chloro-3-fluoro-phenyl)-2H-pyrazol-3-yl]-piperidin-1-yl}-3,3,3-trifluoro-2-hydroxy-2-methyl-propan-1-one], for which the IC50 on PDHK2 and with PDH-Elalpha (pSer300) was 300 to 3000 nM throughout. At human PDHK2 (12-407), this molecule returned a Kd of under 300 nM.
On to `C[C@@](O)(C(=O)N1CCC(c2ccnn2-c2ccc(Cl)c(Cl)c2)CC1)C(F)(F)F` [Compound A101, (R)-1-{4-[2-(3,4-Dichloro-phenyl)-2H-pyrazol-3-yl]-piperidin-1-yl}-3,3,3-trifluoro-2-hydroxy-2-methyl-propan-1-one], for which the IC50 at PDHK2 and in the assay with PDH-Elalpha (pSer300) was 300 to 3000 nM each time. At human PDHK2 (12-407), this molecule yielded a Kd of under 300 nM.
For `C[C@@](O)(C(=O)N1CCC(c2ccn(-c3ccc(C(F)(F)F)cn3)n2)CC1)C(F)(F)F` [Compound A102, (R)-3,3,3-Trifluoro-2-hydroxy-2-methyl-1-{4-[1-(5-trifluoromethyl-pyridin-2-yl)-1 H-pyrazol-3-yl]-piperidin-1-yl}-propan-1-one], the IC50 on PDHK2 and in the assay on PDH-Elalpha (pSer300) was 3000 to 50000 nM each time. Besides, on human PDHK2 (12-407), the Kd is 300 to 3000 nM.
Turning to `C[C@@H]1CN(C(=O)[C@@](C)(O)C(F)(F)F)CC[C@@H]1c1ccnn1-c1ccccc1` [Compound A106, (R)-3,3,3-Trifluoro-2-hydroxy-2-methyl-1-[(3S,4S)-3-methyl-4-(2-phenyl-2H-pyrazol-3-yl)-piperidin-1-yl]-propan-1-one], the IC50 at PDHK2 and with PDH-Elalpha (pSer300) was under 300 nM throughout. Further, the Kd at human PDHK2 (12-407) is under 300 nM.
With `C[C@@H]1CN(C(=O)[C@@](C)(O)C(F)(F)F)CC[C@@H]1c1ccnn1-c1ccc(F)cc1` [Compound A107, (R)-3,3,3-Trifluoro-1-{(3S,4S)-4-[2-(4-fluoro-phenyl)-2H-pyrazol-3-yl]-3-methyl-piperidin-1-yl}-2-hydroxy-2-methyl-propan-1-one], the IC50 on PDHK2 and in the assay with PDH-Elalpha (pSer300) was under 300 nM each time. The Kd on human PDHK2 (12-407) is under 300 nM.
Consider `COc1ccc(-n2nccc2[C@H]2CCN(C(=O)[C@@](C)(O)C(F)(F)F)C[C@H]2C)cc1` [Compound A110, (R)-3,3,3-Trifluoro-1-{(3S,4S)-4-[2-(4-methoxy-phenyl)-2H-pyrazol-3-yl]-3-methyl-piperidin-1-yl}-2-hydroxy-2-methyl-propan-1-one], for which the half-maximal inhibitory concentration (IC50) at PDHK2 and with PDH-Elalpha (pSer300) was under 300 nM in each case. The molecule also returned a Kd at human PDHK2 (12-407) of under 300 nM.
Take `C[C@@H]1CN(C(=O)[C@@](C)(O)C(F)(F)F)CC[C@@H]1c1ccnn1-c1ccc(C#N)cc1` [Compound A111, 4-{5-[(3S,4S)-3-Methyl-1-((R)-3,3,3-trifluoro-2-hydroxy-2-methyl-propionyl)piperidin-4-yl]-pyrazol-1-yl}-benzonitrile]: the IC50 on PDHK2 and in the assay on PDH-Elalpha (pSer300) was under 300 nM in each case. At human PDHK2 (12-407), this molecule gave a Kd of under 300 nM.
For the molecule `C[C@@](O)(C(=O)N1CCC(c2ccnn2-c2ccc(F)cn2)CC1)C(F)(F)F` [Compound A112, (2R)-1-[4-[2-(5-Fluoro-2-pyridyl)-2H-pyrazol-3-yl]-1-piperidyl]-3,3,3-trifluoro-2-hydroxy-2-methyl-propan-1-one], the IC50 on PDHK2 was 300 to 3000 nM; in the assay with PDH-Elalpha (pSer300), 3000 to 50000 nM. At human PDHK2 (12-407), the Kd was under 300 nM.
For `COc1ccc(-n2nccc2[C@H]2CCN(C(=O)[C@@](C)(O)C(F)(F)F)C[C@H]2C)cn1` [Compound A113, (R)-3,3,3-Trifluoro-1-{(3S,4S)-4-[2-(6-methoxy-pyridin-3-yl)-2H-pyrazol-3-yl]-3-methyl-piperidin-1-yl}-2-hydroxy-2-methyl-propan-1-one], in that order: under 300 nM, under 300 nM and under 300 nM.
The corresponding values for `Cc1cc(-n2nccc2C2CCN(C(=O)[C@@](C)(O)C(F)(F)F)CC2)no1` [Compound A115, (R)-3,3,3-Trifluoro-2-hydroxy-2-methyl-1-{4-[2-(5-methyl-isoxazol-3-yl)-2H-pyrazol-3-yl]-piperidin-1-yl}-propan-1-one] are 300 to 3000 nM, 3000 to 50000 nM and under 300 nM.
On to `C[C@@](O)(C(=O)N1CCC(c2ccnn2C2CCOCC2)CC1)C(F)(F)F` [Compound A116, (R)-3,3,3-Trifluoro-2-hydroxy-2-methyl-1-{4-[2-(tetrahydro-pyran-4-yl)-2H-pyrazol-3-yl]-piperidin-1-yl}-propan-1-one], for which the 50% inhibitory concentration (IC50) was in the range of 300 to 3000 nM on PDHK2 and 3000 to 50000 nM in the assay with PDH-Elalpha (pSer300). Besides, at human PDHK2 (12-407), the Kd fell in the range of 300 to 3000 nM.
With `C[C@@](O)(C(=O)N1CCC(c2ccnn2-c2nc3ccccc3s2)CC1)C(F)(F)F` [Compound A117, (R)-1-[4-(2-Benzothiazol-2-yl-2H-pyrazol-3-yl)-piperidin-1-yl]-3,3,3-trifluoro-2-hydroxy-2-methyl-propan-1-one], the figures for the IC50 at PDHK2 and in the assay on PDH-Elalpha (pSer300) were 300 to 3000 nM and 3000 to 50000 nM, respectively. On human PDHK2 (12-407), the equilibrium dissociation constant (Kd) is under 300 nM.
For `C[C@@H]1CN(C(=O)[C@@](C)(O)C(F)(F)F)CC[C@@H]1c1ccnn1-c1ccc(F)cn1` [Compound A118, (R)-3,3,3-Trifluoro-1-{(3S,4S)-4-[2-(5-fluoro-pyridin-2-yl)-2H-pyrazol-3-yl]-3-methyl-piperidin-1-yl}-2-hydroxy-2-methyl-propan-1-one], in that order: under 300 nM, 300 to 3000 nM and under 300 nM.
The corresponding values for `C[C@@H]1CN(C(=O)[C@@](C)(O)C(F)(F)F)CC[C@@H]1c1ccnn1-c1ccc(Cl)cc1` [Compound A119, (R)-1-{(3S,4S)-4-[2-(4-Chloro-phenyl)-2H-pyrazol-3-yl]-3-methyl-piperidin-1-yl}-3,3,3-trifluoro-2-hydroxy-2-methyl-propan-1-one] are under 300 nM, under 300 nM and under 300 nM.

What is called IC50 is the concentration that gives 50% inhibition. Usually Kd stands for the free concentration of one partner at which half of the binding sites on the other are occupied at equilibrium, for simple one-to-one binding. Higher therefore signals weaker binding.

These data come from patent US9751861B2, “N1-(3,3,3-trifluoro-2-hydroxo-2-methylpropionyl)-piperidine derivatives as inhibitors of pyruvate dehydrogenase kinase” (MERCK PATENT GMBH, priority 2013, dated 2017).
